From patent US5656726A, “Peptide inhibitors of urokinase receptor activity” (Chiron Corporation, priority 1995, dated 1997)
Like-named read-outs stand apart in the source and are kept apart here. One block for each compound: values may come before it. Ends that are not written are not given here. Peptide text beside a SMILES is read from it.

Columns and labels:
[1] = molecular target: T1, recombinant human urokinase receptor (truncated, soluble; suPAR) (Homo sapiens, UniProt Q03405); experiment: 125I-ATF competition binding on immobilized soluble recombinant human urokinase receptor; details: synthesized peptide, read-out: Affinity
T1 construct: expressed as a truncated, soluble molecule as described previously for mouse L-cells (Masucci et al., J Biol Chem (1991) 266:8655); made in house
T1 sequence (Q03405 23-299 limits assumed): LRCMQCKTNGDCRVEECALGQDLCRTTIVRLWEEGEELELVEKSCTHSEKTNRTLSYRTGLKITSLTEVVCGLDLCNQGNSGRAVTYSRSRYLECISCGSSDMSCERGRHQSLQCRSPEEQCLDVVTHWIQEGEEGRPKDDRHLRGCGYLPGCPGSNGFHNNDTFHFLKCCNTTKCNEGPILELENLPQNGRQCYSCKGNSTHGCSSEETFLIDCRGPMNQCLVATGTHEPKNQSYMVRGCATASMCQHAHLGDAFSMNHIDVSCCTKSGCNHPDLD

[2] = molecular target: T2, full length huPAR ("fluPAR") (Homo sapiens, UniProt Q03405); experiment: Recovery of phage on Sf9 cells expressing full length huPAR; type: binding
T2 construct: Sf9 cells expressing full length huPAR ("fluPAR", day 2 post infection); expressed in transfected cells; host or cells: Sf9 insect cells, infected (day 2 post infection)
T2 sequence (Q03405 23-335): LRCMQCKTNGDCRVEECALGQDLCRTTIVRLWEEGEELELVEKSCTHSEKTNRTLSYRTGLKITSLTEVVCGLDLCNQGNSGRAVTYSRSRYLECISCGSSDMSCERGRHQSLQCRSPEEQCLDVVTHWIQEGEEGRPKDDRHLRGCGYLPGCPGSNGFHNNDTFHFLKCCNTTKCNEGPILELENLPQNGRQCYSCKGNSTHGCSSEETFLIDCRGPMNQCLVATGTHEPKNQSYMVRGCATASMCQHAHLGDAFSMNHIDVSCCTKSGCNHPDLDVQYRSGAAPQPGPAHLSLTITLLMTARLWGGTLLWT
Protocol: 1.) 15 mer phage (2.5×10^10) prepared as described above were selected by coincubation with 10^6 Sf9 cells expressing full length huPAR ("fluPAR", day 2 post infection) at room temperature for 60 minutes in Grace's medium with 2% nonfat milk. Binding phage were eluted with 6M urea (pH 2.2), the pH neutralized by adding 2M Tris-HCl, and assayed. The yield of binding phage was 0.0013% (3.3×10^5 pfu). The phage were amplified on solid agar plates as plaques, eluted with Tris-buffered saline, and precipitated with polyethylene glycol.
(§1) 3.) The phage selected in round 2 were reselected on SI9 cells expressing fluPAR (day 2 post-infection) as described for round 1 (2.8×10^10 phage on 10^6 St9 cells). The yield of binding phage from this round was 5.40% (1.5×10^9 pfu), indicating a substantial enrichment in binding phage. Sample phage from the urea eluate were cloned, and their DNAs isolated and sequenced. Binding was assayed against Sf9 cells expressing fluPAR, and Sf9 cells expressing substance P receptor ("SPR," as a control).

[3] = molecular target: T3, substance P receptor ("SPR") (Homo sapiens, UniProt P25103); experiment: Recovery of phage on Sf9 cells expressing substance P receptor (control); type: binding; details: phage displaying the peptide
T3 construct: expressed in transfected cells; host or cells: Sf9 insect cells
T3 sequence (P25103 whole entry, species assumed): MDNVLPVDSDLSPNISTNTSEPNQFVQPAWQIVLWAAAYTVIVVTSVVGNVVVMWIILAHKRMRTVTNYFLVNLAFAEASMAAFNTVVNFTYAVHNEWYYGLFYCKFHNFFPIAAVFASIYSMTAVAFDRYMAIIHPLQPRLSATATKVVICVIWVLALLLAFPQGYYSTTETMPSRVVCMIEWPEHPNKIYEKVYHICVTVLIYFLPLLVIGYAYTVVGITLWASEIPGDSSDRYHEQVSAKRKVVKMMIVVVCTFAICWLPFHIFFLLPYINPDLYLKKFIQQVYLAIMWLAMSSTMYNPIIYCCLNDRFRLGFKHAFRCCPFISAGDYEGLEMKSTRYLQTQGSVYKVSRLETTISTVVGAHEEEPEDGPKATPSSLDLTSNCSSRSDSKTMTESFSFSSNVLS
Protocol: as §1

[4] = system: U937 cells; details: Rabbani et al.; cited from earlier work
[5] = system: SaOS-2 osteosarcoma cell line; details: Rabbani et al.; cited from earlier work
[6] = molecular target: uPAR (Homo sapiens, UniProt Q03405); details: Appella et al., cited from earlier work
uPAR, sequence (Q03405 23-335): as the sequence (Q03405 23-335) above

[7] = corrected to 100 pM ATF, 0.3 μg/mL suPAR conditions, corrections about 3 × from previous assay conditions

Compound: CC[C@H](C)[C@H](NC(=O)[C@H](Cc1c[nH]c2ccccc12)NC(=O)[C@H](CCC(=O)O)NC(=O)[C@H](C)N)C(=O)N[C@H](C(=O)N[C@@H](CO)C(=O)N[C@@H](CO)C(=O)N1CCC[C@H]1C(=O)N1CCC[C@H]1C(=O)N[C@@H](CC(C)C)C(=O)N[C@H](C(=O)N[C@@H](CCC(N)=O)C(=O)N[C@@H](Cc1ccc(O)cc1)C(=O)N[C@@H](CC(C)C)C(=O)N[C@@H](Cc1c[nH]c2ccccc12)C(=O)NCC(=O)N[C@@H](Cc1ccccc1)C(N)=O)[C@@H](C)O)[C@@H](C)O (H-AEWITSSPPLTQYLWGF-NH2)
Kd [1, 7]: 10 µM

Compound: AECLNGGTAVSNKYFSNIHWCN [Positive control, residues 13-32 of the EGFlike domain of urokinase (not selected from library)]
% Recovery huPAR ([2]; phage displaying the peptide, Sf9 cells expressing fluPAR): 6.8%
Specificity (uPAR/SPR) ([2]; ratio of % recovery huPAR to SPR): 857
% Recovery SPR [3]: 0.008%

Compound: fucosylated EGF-like domain: fucosylated EGF-like domain (uPA4-43, produced by cleavage from pro-uPA) (LHQVPSNCDCLNGGT(fucose)CVSNKYFSNIHWCNCPKKFGGQHCE; not fully specified; cysteine pairing not given here; UniProt P00749 24-63, looked up, fragment)
mitogenic activity [4]: Neither fucosylated nor non-fucosylated EGF-like domain was mitogenic
mitogenic activity [5]: mitogenic

Compound: uPA12-32: critical domain alone, residues 12-32 of the EGF-like domain of uPA (DCLNGGTCVSNKYFSNIHWCN; UniProt P00749 32-52, looked up, fragment)
Kd ([6]; J. Biol Chem (1987), read-out: affinity for uPAR): 0.04 µM
affinity relative to intact ATF (fold less) [6]: about 100 fold

Other lines, results leading:

Kd [1, 7]: > 50 µM
Compound: CC(C)C[C@H](NC(=O)[C@H](CCCCN)NC(=O)[C@H](CO)NC(=O)[C@H](Cc1ccc(O)cc1)NC(=O)[C@H](CCC(N)=O)NC(=O)[C@@H](NC(=O)[C@H](CO)NC(=O)[C@H](CCC(=O)O)NC(=O)[C@H](C)N)C(C)C)C(=O)N[C@@H](Cc1c[nH]c2ccccc12)C(=O)N[C@@H](CCCCN)C(=O)N1CCC[C@H]1C(=O)N[C@@H](CC(N)=O)C(=O)N[C@H](C(=O)N[C@H](C(=O)N[C@@H](CC(C)C)C(=O)N[C@@H](C)C(N)=O)[C@@H](C)O)[C@@H](C)O (H-AESVQYSKLWKPNTTLA-NH2)

Kd ([1]; assay performed at 100 pM ATF, 0.3 μg/mL suPAR in 200 μL (starred values)): 7 µM
Compound: CC[C@H](C)[C@H](NC(=O)[C@H](Cc1c[nH]cn1)NC(=O)[C@H](CCCCN)NC(=O)[C@H](CC(=O)O)NC(=O)[C@H](Cc1c[nH]cn1)NC(=O)[C@H](Cc1c[nH]c2ccccc12)NC(=O)[C@H](CC(C)C)NC(=O)[C@H](CC(=O)O)NC(=O)[C@H](CCSC)NC(=O)[C@H](Cc1ccccc1)NC(=O)[C@H](CC(C)C)NC(=O)[C@@H](NC(=O)[C@H](CCC(=O)O)NC(=O)[C@H](C)N)[C@@H](C)O)C(=O)N[C@@H](CC(C)C)C(=O)N[C@@H](CC(C)C)C(=O)N[C@H](C(N)=O)[C@@H](C)O (H-AETLFMDLWHDKHILLT-NH2)

Kd [1, 7]: 5 µM
Compound: CC[C@H](C)[C@H](NC(=O)[C@@H](NC(=O)[C@H](CCC(N)=O)NC(=O)[C@@H]1CCCN1C(=O)[C@H](CCC(=O)O)NC(=O)[C@@H]1CCCN1C(=O)[C@H](CC(C)C)NC(=O)[C@H](Cc1c[nH]cn1)NC(=O)[C@H](CC(C)C)NC(=O)[C@H](CC(N)=O)NC(=O)[C@H](Cc1ccc(O)cc1)NC(=O)[C@H](Cc1ccccc1)NC(=O)[C@H](CO)NC(=O)[C@H](Cc1c[nH]c2ccccc12)NC(=O)[C@H](CCC(=O)O)NC(=O)[C@H](C)N)[C@@H](C)O)C(=O)N[C@@H](Cc1ccccc1)C(N)=O (H-AEWSFYNLHLPEPQTIF-NH2)
